The record followed here is US20220168310A1, “INHIBITION OF ADENOVIRUS WITH FILOCICLOVIR” (Microbiotix, Inc., priority 2019, published 2022).

One series concerns adenovirus 3 (AdV3). Nature of the series: Efficacy against adenovirus 3 (data not shown).
Series [1] can be described thus: Cytotoxicity, CellTiter-Glo cell viability assay in HFF cells. Particulars: human, human foreskin fibroblast (HFF) cell monolayers. How it is done:
Human foreskin tissue was obtained from the University of Alabama at Birmingham tissue procurement facility with approval from the Institutional Review Board. The tissue was stored at 4° C. in cell culture medium consisting of minimum essential media (MEM) with Earle's salts supplemented with 10% fetal bovine serum (FBS; HyClone, Inc., Logan, Utah) and standard concentration of L-glutamine, amphotericin B (Fungizone), and vancomycin. The tissue was then placed in a phosphate-buffered saline solution, minced, and rinsed to remove the red blood cells. Tissue fragments were then resuspended in a trypsin-EDTA solution and incubated at 37° C. to disperse the cells, which were then collected by centrifugation. Cell pellets were then resuspended in 4 ml culture medium, placed in a 25-cm^2 tissue culture flask, and incubated at 37° C. for 24 h. The culture medium was then replaced with fresh medium and condition of the cells was monitored daily until a confluent cell monolayer was formed. The HFF cells were then expanded through serial passages in standard growth medium of MEM with Earle's salts supplemented with 10% FBS, L-glutamine, penicillin, and gentamicin. Each lot of cells was confirmed to be free of mycoplasma infection and routinely passaged or used for assays at or before passage 10.
Antiviral and cytotoxicity data were obtained in a series of three to five separate experiments for each virus to provide an accurate estimate of antiviral activity and statistical data. Each assay included positive and negative control compounds as well as infected and uninfected controls to ensure the integrity of the experiment.
The CPE reduction assays were performed in monolayers of human foreskin fibroblast (HFF) cells (5000/well) in 384-well plates in assay media consisting of MEM with Earle's salts, 2% FBS and standard concentrations of L-glutamine, penicillin and gentamycin. 5000 cells were seeded in 384-well microtiter plates and incubated at 37° C. in a humidified 5% CO2 incubator for 24 hours to allow for formation of confluent monolayers.
Cell monolayers were infected at a multiplicity of infection (MOI) of approximately 0.005 PFU/cell with virus strains including AdV5. […] Cytopathology was determined by the addition of CellTiter-Glo® reagent (Promega, Madison, Wis.). Concentrations of antiviral test compounds sufficient to reduce CPE by 50% (EC50) were interpolated from the experimental data using standard methods in Microsoft® Excel.
On the technique in general: ATP-based viability assays read luminescence as a measure of living cells.

In general, CC50 refers to the concentration that lowers cell viability or growth by half.

With `Nc1nc2c(ncn2/C=C2/CC2(CO)CO)c(=O)[nH]1` [FCV, 2-amino-9-{(Z)-[2,2-bis(hydroxymethyl)cyclopropylidene]methyl}-3,9-dihydro-6H-purin-6-one], the “treat or prevent infection” value with adenovirus 3 (AdV3) is given as “effective”. Moreover, the CC50 is > 100 µM in series [1] (CC50, AdV6 line of Table 2, unit inferred); > 150 µM in series [1] (CC50, AdV7 line of Table 2, unit inferred); > 150 µM in series [1] (CC50, AdV8 line of Table 2, unit inferred); 95 ± 10.6 µM in series [1] (CC50, HFF cells, run with AdV5 assay, average and SD from five independent experiments); 100 to 150 µM in series [1] (mammalian cytotoxicity (CC50), summary statement, 'preferably').
